Experimental data reported in ChEMBL document CHEMBL3627608, “Crystal structures of human RIP2 kinase catalytic domain complexed with ATP-competitive inhibitors: Foundations for understanding inhibitor selectivity” (Bioorg Med Chem, 2015).

Assays:
[1] = target: T1, Ephrin type-A receptor 3 (Homo sapiens) (UniProt P29320); experiment: Inhibition of EPHA3 (unknown origin) at 10 uM after 120 mins P33 radiolabeled kinase activity assay
T1 sequence (whole entry): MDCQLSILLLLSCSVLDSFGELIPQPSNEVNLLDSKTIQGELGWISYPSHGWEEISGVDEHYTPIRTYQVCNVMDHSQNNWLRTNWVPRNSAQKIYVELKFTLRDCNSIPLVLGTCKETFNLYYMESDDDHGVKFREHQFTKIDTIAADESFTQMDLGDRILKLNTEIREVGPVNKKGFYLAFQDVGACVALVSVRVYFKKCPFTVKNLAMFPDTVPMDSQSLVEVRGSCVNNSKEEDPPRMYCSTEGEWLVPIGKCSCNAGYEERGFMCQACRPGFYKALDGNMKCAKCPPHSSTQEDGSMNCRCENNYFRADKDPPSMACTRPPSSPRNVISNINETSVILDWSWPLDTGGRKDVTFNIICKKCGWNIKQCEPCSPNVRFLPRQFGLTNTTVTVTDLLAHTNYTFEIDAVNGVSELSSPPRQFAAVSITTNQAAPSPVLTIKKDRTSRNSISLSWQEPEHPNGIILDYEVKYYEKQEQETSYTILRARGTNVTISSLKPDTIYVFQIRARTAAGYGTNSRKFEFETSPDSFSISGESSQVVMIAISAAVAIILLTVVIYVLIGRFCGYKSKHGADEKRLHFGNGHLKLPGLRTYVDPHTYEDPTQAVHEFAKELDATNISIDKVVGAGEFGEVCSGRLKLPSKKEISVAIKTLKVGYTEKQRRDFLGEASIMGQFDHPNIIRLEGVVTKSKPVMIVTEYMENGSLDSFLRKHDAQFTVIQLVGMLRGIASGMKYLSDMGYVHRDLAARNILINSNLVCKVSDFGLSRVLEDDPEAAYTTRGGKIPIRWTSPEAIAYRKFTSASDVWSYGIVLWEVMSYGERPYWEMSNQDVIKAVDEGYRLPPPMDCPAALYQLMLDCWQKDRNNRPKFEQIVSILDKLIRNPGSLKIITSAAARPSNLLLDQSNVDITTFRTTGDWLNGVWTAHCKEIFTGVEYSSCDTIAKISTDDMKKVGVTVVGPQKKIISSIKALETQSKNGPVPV

[2] = target: Tyrosine-protein kinase Fes/Fps (Homo sapiens) (UniProt P07332); experiment: Inhibition of FES (unknown origin) at 10 uM after 120 mins P33 radiolabeled kinase activity assay
[3] = target: G protein-coupled receptor kinase 6 (Homo sapiens) (UniProt P43250); experiment: Inhibition of GRK6 (unknown origin) at 10 uM after 120 mins P33 radiolabeled kinase activity assay
Homo sapiens = organism: Homo sapiens; experiment: Inhibition of PKG1beta (unknown origin) at 10 uM after 120 mins P33 radiolabeled kinase activity assay
[4] = target: T2, Serine/threonine-protein kinase STK11 (Homo sapiens) (UniProt Q15831); experiment: Inhibition of LKB1 (unknown origin) at 10 uM after 120 mins P33 radiolabeled kinase activity assay
T2 sequence (whole entry): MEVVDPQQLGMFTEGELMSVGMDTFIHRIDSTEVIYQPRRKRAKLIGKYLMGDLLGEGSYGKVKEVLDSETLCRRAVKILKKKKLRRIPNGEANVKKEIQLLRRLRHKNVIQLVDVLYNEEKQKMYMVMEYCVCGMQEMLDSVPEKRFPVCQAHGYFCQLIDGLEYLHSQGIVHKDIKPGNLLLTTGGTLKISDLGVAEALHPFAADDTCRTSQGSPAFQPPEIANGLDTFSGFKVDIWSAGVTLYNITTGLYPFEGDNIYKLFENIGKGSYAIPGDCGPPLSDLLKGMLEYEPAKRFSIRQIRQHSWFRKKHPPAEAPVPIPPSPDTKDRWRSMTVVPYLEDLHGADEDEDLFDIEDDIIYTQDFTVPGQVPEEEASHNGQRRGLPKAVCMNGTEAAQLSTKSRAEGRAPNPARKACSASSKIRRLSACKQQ

[5] = target: Mitogen-activated protein kinase kinase kinase 11 (Homo sapiens) (UniProt Q16584); experiment: Inhibition of MLK3 (unknown origin) at 10 uM after 120 mins P33 radiolabeled kinase activity assay
[6] = target: Serine/threonine-protein kinase 32B (Homo sapiens) (UniProt Q9NY57); experiment: Inhibition of STK32B (unknown origin) at 10 uM after 120 mins P33 radiolabeled kinase activity assay
[7] = target: T3, Serine/threonine-protein kinase TBK1 (Homo sapiens) (UniProt Q9UHD2); experiment: Inhibition of TBK1 (unknown origin) at 10 uM after 120 mins P33 radiolabeled kinase activity assay
T3 sequence (whole entry): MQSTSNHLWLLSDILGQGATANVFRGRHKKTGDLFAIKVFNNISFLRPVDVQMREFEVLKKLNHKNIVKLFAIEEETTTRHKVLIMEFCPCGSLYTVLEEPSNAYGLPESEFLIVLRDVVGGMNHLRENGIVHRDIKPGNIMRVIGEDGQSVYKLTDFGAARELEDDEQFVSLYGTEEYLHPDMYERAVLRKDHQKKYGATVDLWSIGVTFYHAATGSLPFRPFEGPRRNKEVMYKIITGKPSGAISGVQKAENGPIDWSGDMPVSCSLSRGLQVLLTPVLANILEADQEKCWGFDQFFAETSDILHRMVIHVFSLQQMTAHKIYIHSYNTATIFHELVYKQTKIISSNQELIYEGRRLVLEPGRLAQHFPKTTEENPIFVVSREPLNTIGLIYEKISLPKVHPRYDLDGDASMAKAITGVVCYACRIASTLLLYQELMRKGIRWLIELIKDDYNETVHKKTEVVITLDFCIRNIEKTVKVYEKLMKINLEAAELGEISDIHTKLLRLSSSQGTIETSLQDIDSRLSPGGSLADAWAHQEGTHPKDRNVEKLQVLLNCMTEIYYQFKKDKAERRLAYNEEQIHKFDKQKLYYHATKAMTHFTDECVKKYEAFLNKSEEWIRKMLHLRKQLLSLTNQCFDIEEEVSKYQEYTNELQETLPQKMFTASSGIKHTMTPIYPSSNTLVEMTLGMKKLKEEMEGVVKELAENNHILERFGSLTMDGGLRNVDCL

[8] = target: Death-associated protein kinase 3 (Homo sapiens) (UniProt O43293); experiment: Inhibition of ZIPK (unknown origin) at 10 uM after 120 mins P33 radiolabeled kinase activity assay
[9] = target: Cyclin-dependent kinase 4/cyclin D1 (Homo sapiens) (UniProt P11802+P24385); experiment: Inhibition of CDK4/cyclin D1 (unknown origin) at 10 uM after 120 mins P33 radiolabeled kinase activity assay; format: protein-complex assay

G protein-coupled receptor kinase 6 (Homo sapiens), sequence (P43250 whole entry, looked up): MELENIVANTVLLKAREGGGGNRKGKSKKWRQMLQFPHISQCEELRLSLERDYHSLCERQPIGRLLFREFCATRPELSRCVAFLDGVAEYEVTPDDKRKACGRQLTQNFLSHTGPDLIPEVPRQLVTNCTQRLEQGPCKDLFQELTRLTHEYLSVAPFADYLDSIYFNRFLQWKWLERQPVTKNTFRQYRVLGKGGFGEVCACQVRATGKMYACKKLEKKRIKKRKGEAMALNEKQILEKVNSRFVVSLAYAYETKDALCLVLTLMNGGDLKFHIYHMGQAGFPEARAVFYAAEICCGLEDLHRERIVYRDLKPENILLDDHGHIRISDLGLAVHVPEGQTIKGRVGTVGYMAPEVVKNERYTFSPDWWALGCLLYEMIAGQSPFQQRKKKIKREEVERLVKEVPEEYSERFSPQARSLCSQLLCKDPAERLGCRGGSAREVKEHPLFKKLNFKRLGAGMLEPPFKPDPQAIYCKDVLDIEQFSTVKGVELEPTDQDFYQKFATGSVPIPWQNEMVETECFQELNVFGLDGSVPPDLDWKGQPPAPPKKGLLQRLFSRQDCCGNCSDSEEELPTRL
Mitogen-activated protein kinase kinase kinase 11 (Homo sapiens), sequence (Q16584 whole entry, looked up): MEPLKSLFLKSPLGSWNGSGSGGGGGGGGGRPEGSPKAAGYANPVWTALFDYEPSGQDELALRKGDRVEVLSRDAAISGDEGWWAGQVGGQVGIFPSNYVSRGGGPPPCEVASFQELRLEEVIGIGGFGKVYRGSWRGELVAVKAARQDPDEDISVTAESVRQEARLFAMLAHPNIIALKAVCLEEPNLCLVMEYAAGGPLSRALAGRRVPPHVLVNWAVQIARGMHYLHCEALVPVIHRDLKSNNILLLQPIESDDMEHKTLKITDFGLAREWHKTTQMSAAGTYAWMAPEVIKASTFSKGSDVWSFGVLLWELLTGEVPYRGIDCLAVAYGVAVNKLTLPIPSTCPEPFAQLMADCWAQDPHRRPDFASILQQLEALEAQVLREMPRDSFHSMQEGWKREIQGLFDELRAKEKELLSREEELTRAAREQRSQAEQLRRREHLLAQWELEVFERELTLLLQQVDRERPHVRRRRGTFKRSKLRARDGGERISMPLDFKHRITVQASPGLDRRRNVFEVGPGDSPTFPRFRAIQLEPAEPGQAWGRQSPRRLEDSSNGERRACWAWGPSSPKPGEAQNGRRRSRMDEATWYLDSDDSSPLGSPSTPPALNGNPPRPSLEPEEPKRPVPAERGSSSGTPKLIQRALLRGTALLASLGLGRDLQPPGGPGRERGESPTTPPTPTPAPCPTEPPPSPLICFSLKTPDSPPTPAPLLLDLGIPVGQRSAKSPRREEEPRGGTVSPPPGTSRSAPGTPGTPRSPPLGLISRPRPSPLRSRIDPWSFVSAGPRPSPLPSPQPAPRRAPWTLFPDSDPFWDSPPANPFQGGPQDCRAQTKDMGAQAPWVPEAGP
Death-associated protein kinase 3 (Homo sapiens), sequence (O43293 whole entry, looked up): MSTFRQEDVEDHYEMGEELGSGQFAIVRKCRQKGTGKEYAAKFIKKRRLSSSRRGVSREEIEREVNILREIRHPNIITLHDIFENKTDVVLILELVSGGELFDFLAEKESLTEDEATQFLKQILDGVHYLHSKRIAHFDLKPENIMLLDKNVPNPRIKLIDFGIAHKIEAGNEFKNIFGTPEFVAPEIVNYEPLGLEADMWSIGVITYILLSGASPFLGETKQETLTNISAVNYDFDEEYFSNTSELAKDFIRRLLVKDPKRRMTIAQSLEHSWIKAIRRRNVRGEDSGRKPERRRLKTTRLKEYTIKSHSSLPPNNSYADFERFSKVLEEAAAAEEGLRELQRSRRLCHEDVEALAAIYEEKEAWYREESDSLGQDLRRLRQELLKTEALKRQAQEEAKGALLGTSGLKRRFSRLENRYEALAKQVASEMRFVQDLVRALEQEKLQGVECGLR
Tyrosine-protein kinase Fes/Fps (Homo sapiens), sequence (P07332 whole entry): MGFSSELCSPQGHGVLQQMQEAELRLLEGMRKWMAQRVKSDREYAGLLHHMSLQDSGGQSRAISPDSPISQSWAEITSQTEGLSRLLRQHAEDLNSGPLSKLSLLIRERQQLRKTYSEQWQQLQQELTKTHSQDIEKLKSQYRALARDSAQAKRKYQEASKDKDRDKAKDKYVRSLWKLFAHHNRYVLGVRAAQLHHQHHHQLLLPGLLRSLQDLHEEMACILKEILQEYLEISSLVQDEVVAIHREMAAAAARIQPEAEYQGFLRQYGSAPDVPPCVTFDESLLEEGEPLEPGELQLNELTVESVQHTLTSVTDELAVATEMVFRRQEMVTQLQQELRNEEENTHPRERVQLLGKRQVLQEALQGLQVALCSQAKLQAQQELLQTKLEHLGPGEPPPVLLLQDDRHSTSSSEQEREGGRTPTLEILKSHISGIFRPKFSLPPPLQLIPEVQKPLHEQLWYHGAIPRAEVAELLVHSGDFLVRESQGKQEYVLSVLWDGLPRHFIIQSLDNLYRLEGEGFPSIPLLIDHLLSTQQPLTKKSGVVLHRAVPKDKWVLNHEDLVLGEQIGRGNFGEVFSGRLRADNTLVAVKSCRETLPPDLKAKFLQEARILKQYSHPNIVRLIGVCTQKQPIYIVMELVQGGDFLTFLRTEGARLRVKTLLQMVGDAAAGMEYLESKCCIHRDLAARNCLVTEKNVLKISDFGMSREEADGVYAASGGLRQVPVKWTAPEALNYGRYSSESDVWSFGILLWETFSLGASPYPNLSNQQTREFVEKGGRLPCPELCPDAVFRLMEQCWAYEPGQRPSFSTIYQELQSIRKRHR
Serine/threonine-protein kinase 32B (Homo sapiens), sequence (Q9NY57 whole entry): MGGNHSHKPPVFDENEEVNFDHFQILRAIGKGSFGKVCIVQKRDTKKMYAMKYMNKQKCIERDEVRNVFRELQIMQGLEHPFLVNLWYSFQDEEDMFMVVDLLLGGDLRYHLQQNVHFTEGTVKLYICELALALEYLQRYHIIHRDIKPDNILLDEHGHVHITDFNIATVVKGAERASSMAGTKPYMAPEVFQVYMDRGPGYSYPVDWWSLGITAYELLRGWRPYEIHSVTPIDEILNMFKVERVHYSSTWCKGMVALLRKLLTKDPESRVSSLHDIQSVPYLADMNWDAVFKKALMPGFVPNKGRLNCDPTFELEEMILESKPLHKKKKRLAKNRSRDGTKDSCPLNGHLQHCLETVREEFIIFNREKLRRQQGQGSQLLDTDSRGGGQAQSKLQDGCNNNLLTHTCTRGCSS

inhibition [1] | inhibition [2] | inhibition [3] | inhibition (Homo sapiens) | inhibition [4] | inhibition [5] | inhibition [6] | inhibition [7] | inhibition [9] | SMILES | inhibition [8]
57.4% | 42.4% | -5.6% | 2.75% | 46.2% | 92.7% | 24.6% | 55.4% | 74.5% | CS(=O)(=O)c1cccc(Nc2nccc(-c3sc(N4CCOCC4)nc3-c3cccc(NS(=O)(=O)c4c(F)cccc4F)c3)n2)c1 | 50.7%
17.5% | 16.4% | -7.62% | -4.49% | 3.09% | 6.84% | -6.19% | 5.84% | -1.3% | COCCNC(=O)c1ccc2c(c1)nc(-c1cnc(-c3ccc(Cl)cc3)[nH]1)n2CCOC | 3.1%
91.5% | 33.8% | -8.96% | 15.2% | 3.9% | 60.1% | 9.05% | 4.25% | 43% | CC(C)(C)c1cc(NC(=O)Nc2ccc(Oc3ccncc3)cc2)no1 | 35.6%
